# From PMC5218480 (PLoS ONE, 2017)
# System: MV-4-11 cells
# Experiment: Gene expression microarray analysis (Affymetrix PrimeView) and GSEA
# Assay type: cell-based, human
# Design: RFU PODN (11730768_x_at) / Fold change /veh PODN (11730768_x_at) / RFU LINC00158 (11744669_a_at) / Fold change /veh LINC00158 (11744669_a_at) / RFU DUSP10 (11751237_a_at) / Fold change /veh DUSP10 (11751237_a_at) / RFU ID3 (11757404_x_at) / Fold change /veh ID3 (11757404_x_at) / RFU PLEKHG5 (11737974_s_at) / Fold change /veh PLEKHG5 (11737974_s_at) / RFU LRRC4B (11730491_at) / Fold change /veh LRRC4B (11730491_at) / RFU GIMAP4 (11747438_a_at) / Fold change /veh GIMAP4 (11747438_a_at) / RFU KRT8 (11758183_x_at) / Fold change /veh KRT8 (11758183_x_at) / RFU CNN1 (11734310_a_at) / Fold change /veh CNN1 (11734310_a_at) / RFU VPS37D (11726825_at) / Fold change /veh VPS37D (11726825_at) / RFU C10orf10 (11716522_x_at) / Fold change /veh C10orf10 (11716522_x_at) / RFU KIR2DL2 /// KIR2DL4 /// KIR2DL5A /// KIR2DL5B /// KIR2DS1 /// KIR2DS2 /// KIR2DS3 /// KIR2DS4 /// KIR3DL3 /// KIR3DL3 /// KIR3DS1 (11738374_at) / Fold change /veh KIR2DL2 /// KIR2DL4 /// KIR2DL5A /// KIR2DL5B /// KIR2DS1 /// KIR2DS2 /// KIR2DS3 /// KIR2DS4 /// KIR3DL3 /// KIR3DL3 /// KIR3DS1 (11738374_at) / RFU C1QL1 (11718748_at) / Fold change /veh C1QL1 (11718748_at) / RFU TMPRSS4 (11747572_a_at) / Fold change /veh TMPRSS4 (11747572_a_at) / RFU HAMP (11756126_x_at) / Fold change /veh HAMP (11756126_x_at) / RFU RNFT2 (11725882_a_at) / Fold change /veh RNFT2 (11725882_a_at) / RFU NR4A2 (11747474_a_at) / Fold change /veh NR4A2 (11747474_a_at) / RFU ABCC12 (11746883_a_at) / Fold change /veh ABCC12 (11746883_a_at) / RFU TMEM136 (11760407_x_at) / Fold change /veh TMEM136 (11760407_x_at) / RFU CLDN22 /// WWC2 (11732394_at) / Fold change /veh CLDN22 /// WWC2 (11732394_at) / RFU HLA-DPB1 (11760878_x_at) / Fold change /veh HLA-DPB1 (11760878_x_at) / RFU SPINT1 (11716480_a_at) / Fold change /veh SPINT1 (11716480_a_at) / RFU GAP43 (11754022_s_at) / Fold change /veh GAP43 (11754022_s_at) / RFU A4GNT (11735810_at) / Fold change /veh A4GNT (11735810_at) / RFU PRB3 (11715151_x_at) / Fold change /veh PRB3 (11715151_x_at) / RFU TUBB4B (11761932_at) / Fold change /veh TUBB4B (11761932_at) / RFU CAPN14 (11732068_a_at) / Fold change /veh CAPN14 (11732068_a_at) / RFU TMCC2 (11721928_a_at) / Fold change /veh TMCC2 (11721928_a_at) / RFU IRGQ (11745062_a_at) / Fold change /veh IRGQ (11745062_a_at) / RFU FAM174B (11720279_a_at) / Fold change /veh FAM174B (11720279_a_at) / RFU TMPRSS4 (11748680_a_at) / Fold change /veh TMPRSS4 (11748680_a_at) / RFU FAM212B (11763350_a_at) / Fold change /veh FAM212B (11763350_a_at) / RFU PLEKHG5 (11743358_a_at) / Fold change /veh PLEKHG5 (11743358_a_at) / RFU ZSCAN30 (11745921_a_at) / Fold change /veh ZSCAN30 (11745921_a_at) / RFU CMKLR1 (11741424_a_at) / Fold change /veh CMKLR1 (11741424_a_at) / RFU LOC101060620 /// MAPK8IP1 (11723275_at) / Fold change /veh LOC101060620 /// MAPK8IP1 (11723275_at) / RFU SPTSSB (11747773_x_at) / Fold change /veh SPTSSB (11747773_x_at) / RFU PRSS12 (11739890_at) / Fold change /veh PRSS12 (11739890_at) / RFU BIN1 (11741810_x_at) / Fold change /veh BIN1 (11741810_x_at) / RFU WNT11 (11732464_a_at) / Fold change /veh WNT11 (11732464_a_at) / RFU C10orf10 (11716521_a_at) / Fold change /veh C10orf10 (11716521_a_at) / RFU C5orf56 (11738089_at) / Fold change /veh C5orf56 (11738089_at) / RFU CYB561 (11721691_x_at) / Fold change /veh CYB561 (11721691_x_at) / RFU ANKRD19P (11752326_a_at) / Fold change /veh ANKRD19P (11752326_a_at) / RFU OR2T12 /// OR2T33 /// OR2T8 (11738714_s_at) / Fold change /veh OR2T12 /// OR2T33 /// OR2T8 (11738714_s_at) / RFU VCAN (11748164_a_at) / Fold change /veh VCAN (11748164_a_at) / RFU JSRP1 (11732532_at) / Fold change /veh JSRP1 (11732532_at) / RFU KRTAP10-11 (11738290_x_at) / Fold change /veh KRTAP10-11 (11738290_x_at) / RFU MYO3A (11730013_a_at) / Fold change /veh MYO3A (11730013_a_at) / RFU EBF3 (11725865_a_at) / Fold change /veh EBF3 (11725865_a_at) / RFU CAMK2N1 (11719241_x_at) / Fold change /veh CAMK2N1 (11719241_x_at) / RFU C5orf56 (11738088_a_at) / Fold change /veh C5orf56 (11738088_a_at) / RFU OLFML3 (11715873_a_at) / Fold change /veh OLFML3 (11715873_a_at) / RFU LOC100653217 /// NTM (11731650_a_at) / Fold change /veh LOC100653217 /// NTM (11731650_a_at) / RFU MAPK11 (11762145_a_at) / Fold change /veh MAPK11 (11762145_a_at) / RFU FIZ1 (11724087_x_at) / Fold change /veh FIZ1 (11724087_x_at) / RFU OASL (11726364_x_at) / Fold change /veh OASL (11726364_x_at) / RFU SOX15 (11748057_x_at) / Fold change /veh SOX15 (11748057_x_at) / RFU CD79A (11719716_a_at) / Fold change /veh CD79A (11719716_a_at) / RFU HIST1H1D (11736915_at) / Fold change /veh HIST1H1D (11736915_at) / RFU CASKIN2 (11723855_a_at) / Fold change /veh CASKIN2 (11723855_a_at) / RFU LOC730098 (11760151_x_at) / Fold change /veh LOC730098 (11760151_x_at) / RFU OR4N2 (11742367_at) / Fold change /veh OR4N2 (11742367_at) / RFU PRRT2 (11749266_a_at) / Fold change /veh PRRT2 (11749266_a_at) / RFU SNX32 (11753110_a_at) / Fold change /veh SNX32 (11753110_a_at) / RFU CDHR5 (11726645_a_at) / Fold change /veh CDHR5 (11726645_a_at) / RFU RCAN1 (11760418_a_at) / Fold change /veh RCAN1 (11760418_a_at) / RFU FAM167A (11723789_a_at) / Fold change /veh FAM167A (11723789_a_at) / RFU FAM26E (11764081_at) / Fold change /veh FAM26E (11764081_at) / RFU ISYNA1 (11749810_s_at) / Fold change /veh ISYNA1 (11749810_s_at) / RFU ACY1 (11761880_at) / Fold change /veh ACY1 (11761880_at) / RFU 11764098_at / Fold change /veh 11764098_at / RFU SAMD14 (11745864_x_at) / Fold change /veh SAMD14 (11745864_x_at) / RFU NPB (11741838_a_at) / Fold change /veh NPB (11741838_a_at) / RFU TMPRSS6 (11731388_a_at) / Fold change /veh TMPRSS6 (11731388_a_at) / RFU KRTAP10-2 (11738614_at) / Fold change /veh KRTAP10-2 (11738614_at) / RFU ARHGAP8 /// PRR5-ARHGAP8 (11727945_x_at) / Fold change /veh ARHGAP8 /// PRR5-ARHGAP8 (11727945_x_at) / RFU KRTAP5-7 /// NADSYN1 (11734609_at) / Fold change /veh KRTAP5-7 /// NADSYN1 (11734609_at) / RFU RASL12 (11751679_a_at) / Fold change /veh RASL12 (11751679_a_at) / RFU CDKN2B (11736163_a_at) / Fold change /veh CDKN2B (11736163_a_at) / RFU PRF1 (11729649_at) / Fold change /veh PRF1 (11729649_at) / RFU, ZNF638 /// ZNF638-IT1 / Fold change vs veh, ZNF638 /// ZNF638-IT1 / RFU, PANK3 / Fold change vs veh, PANK3 / RFU, SH3YL1 / Fold change vs veh, SH3YL1 / RFU, ZEB2 / Fold change vs veh, ZEB2 / RFU, NRIP1 / Fold change vs veh, NRIP1 / RFU, PTTG1IP / Fold change vs veh, PTTG1IP / RFU, CAPN2 / Fold change vs veh, CAPN2 / RFU, MED14 / Fold change vs veh, MED14 / RFU, SNORA58 / Fold change vs veh, SNORA58 / RFU, C1orf63 / Fold change vs veh, C1orf63 / RFU, LRRFIP1 / Fold change vs veh, LRRFIP1 / RFU, NDUFAF7 / Fold change vs veh, NDUFAF7 / RFU, SLC12A2 / Fold change vs veh, SLC12A2 / RFU, IBTK / Fold change vs veh, IBTK / RFU, ESF1 / Fold change vs veh, ESF1 / Fold change vs veh, TMEM50B / RFU, TAOK1 / Fold change vs veh, TAOK1 / RFU, ACBD3 / Fold change vs veh, ACBD3 / RFU, TMA16 / Fold change vs veh, TMA16 / RFU, RWDD3 / Fold change vs veh, RWDD3 / RFU, BCAT1 / Fold change vs veh, BCAT1 / RFU, EDEM3 / Fold change vs veh, EDEM3 / RFU, TMEM33 / Fold change vs veh, TMEM33 / RFU, WDR75 / Fold change vs veh, WDR75 / RFU, AHCTF1 / Fold change vs veh, AHCTF1 / RFU, TFRC / Fold change vs veh, TFRC / RFU, ZDHHC17 / Fold change vs veh, ZDHHC17 / RFU, NOM1 / Fold change vs veh, NOM1 / RFU, ARL8B / Fold change vs veh, ARL8B / RFU, ZBTB11 / Fold change vs veh, ZBTB11 / RFU, TAMM41 / Fold change vs veh, TAMM41 / RFU, KIAA1704 /// LOC100996395 / Fold change vs veh, KIAA1704 /// LOC100996395 / RFU, ING1 / Fold change vs veh, ING1 / RFU, TRMT61B / Fold change vs veh, TRMT61B / RFU, FUBP3 / Fold change vs veh, FUBP3 / RFU, TP53 / Fold change vs veh, TP53 / RFU, TNKS2 / Fold change vs veh, TNKS2 / RFU, ZFP14 / Fold change vs veh, ZFP14 / RFU, ACTR2 / Fold change vs veh, ACTR2 / RFU, PPP3R1 / Fold change vs veh, PPP3R1 / RFU, PIK3R1 / Fold change vs veh, PIK3R1 / RFU, HNRNPA1 / Fold change vs veh, HNRNPA1 / RFU, RNF170 / Fold change vs veh, RNF170 / RFU, ZNF28 / Fold change vs veh, ZNF28 / RFU, RNGTT / Fold change vs veh, RNGTT / RFU, OGT / Fold change vs veh, OGT / RFU, BRD1 / Fold change vs veh, BRD1 / RFU, MARS / Fold change vs veh, MARS / RFU, ZNF655 / Fold change vs veh, ZNF655 / RFU, FAHD1 / Fold change vs veh, FAHD1 / RFU, BDP1 / Fold change vs veh, BDP1 / RFU, LRRCC1 / Fold change vs veh, LRRCC1 / RFU, ARID1A / Fold change vs veh, ARID1A / RFU, ZNF146 / Fold change vs veh, ZNF146 / RFU, ZNF330 / Fold change vs veh, ZNF330 / RFU, GPN3 / Fold change vs veh, GPN3 / RFU, C9orf123 / Fold change vs veh, C9orf123 / RFU, N4BP2L2 / Fold change vs veh, N4BP2L2 / RFU, ARFIP1 / Fold change vs veh, ARFIP1 / RFU, FAM179B / Fold change vs veh, FAM179B / RFU, BCL10 / Fold change vs veh, BCL10 / RFU, UHRF1BP1L / Fold change vs veh, UHRF1BP1L / RFU, BET1 / Fold change vs veh, BET1 / RFU, CNOT2 / Fold change vs veh, CNOT2 / RFU, ZNF268 / Fold change vs veh, ZNF268 / Fold change vs veh, ZNF507 / RFU, DGCR2 / Fold change vs veh, DGCR2 / RFU, WDSUB1 / Fold change vs veh, WDSUB1 / Fold change vs veh, HSP90B1 /// MIR3652 / RFU, ADSS / Fold change vs veh, ADSS / RFU, GK / Fold change vs veh, GK / RFU, ZNF148 / Fold change vs veh, ZNF148 / RFU, TAF9 / Fold change vs veh, TAF9 / RFU, SLC1A5 / Fold change vs veh, SLC1A5 / RFU, SLMO2 / Fold change vs veh, SLMO2 / RFU, ABCC4 / Fold change vs veh, ABCC4 / RFU, LOC101060439 /// RAP1B / Fold change vs veh, LOC101060439 /// RAP1B / RFU, RFX7 / Fold change vs veh, RFX7 / RFU, GTPBP10 / Fold change vs veh, GTPBP10 / RFU, CNEP1R1 / Fold change vs veh, CNEP1R1 / RFU, BIVM-ERCC5 /// ERCC5 / Fold change vs veh, BIVM-ERCC5 /// ERCC5 / RFU, ILF3 / Fold change vs veh, ILF3 / RFU 11762660_at / Fold change /veh 11762660_at / RFU VCAN (11757783_s_at) / Fold change /veh VCAN (11757783_s_at) / RFU DDX43 (11728927_at) / Fold change /veh DDX43 (11728927_at) / RFU KRT8 (11758188_x_at) / Fold change /veh KRT8 (11758188_x_at) / RFU NKD1 (11759106_at) / Fold change /veh NKD1 (11759106_at) / RFU SRD5A1 (11742802_a_at) / Fold change /veh SRD5A1 (11742802_a_at) / RFU TPSAB1 /// TPSB2 (11721975_s_at) / Fold change /veh TPSAB1 /// TPSB2 (11721975_s_at) / RFU GSTM3 (11746129_a_at) / Fold change /veh GSTM3 (11746129_a_at) / RFU IL23R (11737362_x_at) / Fold change /veh IL23R (11737362_x_at) / RFU TMEM51 (11727254_a_at) / Fold change /veh TMEM51 (11727254_a_at) / RFU PIWIL2 (11732686_x_at) / Fold change /veh PIWIL2 (11732686_x_at) / RFU ORM1 (11744905_x_at) / Fold change /veh ORM1 (11744905_x_at) / RFU CCDC152 (11743942_at) / Fold change /veh CCDC152 (11743942_at) / RFU ECM1 (11717891_a_at) / Fold change /veh ECM1 (11717891_a_at) / RFU IL23R (11748794_a_at) / Fold change /veh IL23R (11748794_a_at) / RFU TNFAIP8L3 (11732012_x_at) / Fold change /veh TNFAIP8L3 (11732012_x_at) / RFU MBOAT4 (11741988_at) / Fold change /veh MBOAT4 (11741988_at) / RFU 11764193_at / Fold change /veh 11764193_at / RFU TMEM53 (11763286_at) / Fold change /veh TMEM53 (11763286_at) / RFU MAGEB2 (11727129_at) / Fold change /veh MAGEB2 (11727129_at) / RFU TMEM200A (11744735_a_at) / Fold change /veh TMEM200A (11744735_a_at) / RFU CCDC152 (11751479_a_at) / Fold change /veh CCDC152 (11751479_a_at) / RFU FAM211A (11726209_a_at) / Fold change /veh FAM211A (11726209_a_at) / RFU RGS16 (11746705_a_at) / Fold change /veh RGS16 (11746705_a_at) / RFU VCAN (11755009_s_at) / Fold change /veh VCAN (11755009_s_at) / RFU RHOB (11743442_s_at) / Fold change /veh RHOB (11743442_s_at) / RFU RGS16 (11720943_a_at) / Fold change /veh RGS16 (11720943_a_at) / RFU RGS16 (11720944_at) / Fold change /veh RGS16 (11720944_at) / RFU, VPS4B / Fold change vs veh, VPS4B / RFU, CREB1 / Fold change vs veh, CREB1 / RFU, DNAJC13 / Fold change vs veh, DNAJC13 / RFU, GNAQ / Fold change vs veh, GNAQ / RFU, CDK5R1 / Fold change vs veh, CDK5R1 / RFU, ZRANB3 / Fold change vs veh, ZRANB3 / RFU, CUL4A / Fold change vs veh, CUL4A / RFU, CCNY / Fold change vs veh, CCNY / RFU, UFL1 / Fold change vs veh, UFL1 / RFU, COG3 / Fold change vs veh, COG3 / RFU, DIAPH2 / Fold change vs veh, DIAPH2 / RFU, SKA2 / Fold change vs veh, SKA2 / RFU, AFF3 / Fold change vs veh, AFF3 / RFU, LMF1 / Fold change vs veh, LMF1 / RFU, IPO11 / Fold change vs veh, IPO11 / RFU, DFFB / Fold change vs veh, DFFB / RFU, FOXP1 / Fold change vs veh, FOXP1 / RFU, CARD8 / Fold change vs veh, CARD8 / RFU, STRN3 / Fold change vs veh, STRN3 / RFU, ADK / Fold change vs veh, ADK / RFU, RASSF2 / Fold change vs veh, RASSF2 / RFU, WIPF1 / Fold change vs veh, WIPF1 / RFU, LARP1B / Fold change vs veh, LARP1B / RFU, RASA1 / Fold change vs veh, RASA1 / RFU, RB1 / Fold change vs veh, RB1 / RFU, PPFIA1 / Fold change vs veh, PPFIA1 / RFU, MAT2A / Fold change vs veh, MAT2A / RFU, CCT5 / Fold change vs veh, CCT5 / RFU, WDR92 / Fold change vs veh, WDR92 / RFU, CUX1 / Fold change vs veh, CUX1 / RFU, TTC7A / Fold change vs veh, TTC7A / RFU, TMEM135 / Fold change vs veh, TMEM135 / RFU, DEPTOR / Fold change vs veh, DEPTOR / RFU, CPM / Fold change vs veh, CPM / RFU, DNAJB6 / Fold change vs veh, DNAJB6 / RFU, CACNA2D3 / Fold change vs veh, CACNA2D3 / RFU, DTX4 / Fold change vs veh, DTX4 / RFU, TFCP2 / Fold change vs veh, TFCP2 / RFU, GMCL1 /// GMCL1P1 / Fold change vs veh, GMCL1 /// GMCL1P1 / RFU, AEBP2 / Fold change vs veh, AEBP2 / RFU, SNHG1 /// SNORD22 /// SNORD25 /// SNORD26 /// SNORD27 /// SNORD28 /// SNORD29 /// SNORD31 / Fold change vs veh, SNHG1 /// SNORD22 /// SNORD25 /// SNORD26 /// SNORD27 /// SNORD28 /// SNORD29 /// SNORD31 / Fold change (Aza/veh), C12orf56 (ProbeSet 11735607_a_at) / Fold change (ACY-1035/veh), C12orf56 (ProbeSet 11735607_a_at) / Fold change (Aza/veh), FGFR1OP (ProbeSet 11751329_s_at) / Fold change (ACY-1035/veh), FGFR1OP (ProbeSet 11751329_s_at) / Fold change (Aza/veh), VPS36 (ProbeSet 11739960_a_at) / Fold change (ACY-1035/veh), VPS36 (ProbeSet 11739960_a_at) / RFU SYPL1 (11715823_x_at) / Fold change /veh SYPL1 (11715823_x_at) / RFU IGFBP7 (11715501_s_at) / Fold change /veh IGFBP7 (11715501_s_at) / RFU REEP3 (11722064_at) / Fold change /veh REEP3 (11722064_at) / RFU IGLL1 (11728026_x_at) / Fold change /veh IGLL1 (11728026_x_at): dose or concentration left out as unconfirmed
# Settings: ProbeSet 11719185_x_at; LIST B
smiles,measurement,value
Nc1ccc(-c2cccs2)cc1NC(=O)c1ccc2c(c1)cc(C1CC1)n2CCN1CCOCC1 [ACY-1035],"Fold change vs veh, N4BP2L2",1.03
